Results as given in ChEMBL document CHEMBL1201862, “PubChem BioAssay data set” (2004).
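Method: 48-hour compound exposure of cells in 96-well plates, five concentrations, linear interpolation of endpoints. At the GI50, growth is halved.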 Activity calls are given as the source filed them. Cut-off read from the data, not from the text of the source: active = GI50 up to about 1.1 µM and inactive = higher.

Assays:
Test in all cases: DTP human tumour cell line panel, 48 h
SF-268 = system: SF-268
OVCAR-3 = system: OVCAR-3
UACC-257 = system: UACC-257
OVCAR-8 = system: OVCAR-8
MDA-N = system: MDA-N
EKVX = system: EKVX
SN12C = system: SN12C
Malme-3M = system: Malme-3M
LOX IMVI = system: LOX IMVI
NCI-H522 = system: NCI-H522
A498 = system: A498
SK-MEL-2 = system: SK-MEL-2
HL-60 = system: HL-60
TK-10 = system: TK-10
A549 = system: A549
CCRF-CEM = system: CCRF-CEM
SF-539 = system: SF-539
SR = system: SR
HCC 2998 = system: HCC 2998
HOP-92 = system: HOP-92

SMILES | GI50 (SF-268) | GI50 (OVCAR-3) | GI50 (UACC-257) | GI50 (OVCAR-8) | GI50 (MDA-N) | GI50 (EKVX) | GI50 (SN12C) | GI50 (Malme-3M) | GI50 (LOX IMVI) | GI50 (NCI-H522) | GI50 (A498) | GI50 (SK-MEL-2) | GI50 (HL-60) | GI50 (TK-10) | GI50 (A549) | GI50 (CCRF-CEM) | GI50 (SF-539) | GI50 (SR) | GI50 (HCC 2998) | GI50 (HOP-92)
CC1=NOC2(C1)C(=O)Nc1ccccc12 (stereo unspecified) | > 100 µM (inactive) | > 100 µM (inactive) | > 100 µM (inactive) | > 100 µM (inactive) | > 100 µM (inactive) | > 100 µM (inactive) | > 100 µM (inactive) | > 100 µM (inactive) | > 100 µM (inactive) | > 100 µM (inactive) | 34.3 µM (inactive) | > 100 µM (inactive) | > 100 µM (inactive) | > 100 µM (inactive) | > 100 µM (inactive) | > 100 µM (inactive) | > 100 µM (inactive) | > 100 µM (inactive) | > 100 µM (inactive) | –
CCN(CC(COc1ccc2c(c1)[n+]([O-])nc(N)[n+]2[O-])OC(C)=O)C(C)=O (stereo unspecified) | 56 µM (inactive) | 76.2 µM (inactive) | 76.7 µM (inactive) | 42.1 µM (inactive) | 85.7 µM (inactive) | 52.2 µM (inactive) | > 100 µM (inactive) | – | 58.3 µM (inactive) | 16.4 µM (inactive) | 25.9 µM (inactive) | > 100 µM (inactive) | 80.4 µM (inactive) | > 100 µM (inactive) | 68.2 µM (inactive) | 48.2 µM (inactive) | > 100 µM (inactive) | > 100 µM (inactive) | – | –
O=C1Cc2c(-c3cccs3)cc(-c3ccccc3)nc2-c2ccccc2N1 | 10.8 µM (inactive) | 33.4 µM (inactive) | > 100 µM (inactive) | 1.45 µM (inactive) | 21.8 µM (inactive) | 33.7 µM (inactive) | 67.5 µM (inactive) | 9.95 µM (inactive) | 36.5 µM (inactive) | 27.8 µM (inactive) | > 100 µM (inactive) | 86.3 µM (inactive) | – | > 100 µM (inactive) | 93.1 µM (inactive) | > 100 µM (inactive) | 22.7 µM (inactive) | > 100 µM (inactive) | 47.3 µM (inactive) | > 100 µM (inactive)
Cc1c(C(=O)OCc2ccccc2)[n+]([O-])c2cc(Cl)c(Cl)cc2[n+]1[O-] | 17.5 µM (inactive) | 12.2 µM (inactive) | 15.1 µM (inactive) | 18.2 µM (inactive) | 20.6 µM (inactive) | 13.9 µM (inactive) | 18.1 µM (inactive) | – | 17.2 µM (inactive) | – | 20.5 µM (inactive) | 17.4 µM (inactive) | 11.7 µM (inactive) | 18.7 µM (inactive) | 11.1 µM (inactive) | 14.8 µM (inactive) | 22.5 µM (inactive) | 5.37 µM (inactive) | 15.2 µM (inactive) | 6.27 µM (inactive)
Clc1ccc2nc3c(c(-c4ccccc4)nn3-c3ccccc3)c(-c3ccccc3)c2c1 | > 100 µM (inactive) | > 100 µM (inactive) | – | > 100 µM (inactive) | > 100 µM (inactive) | > 100 µM (inactive) | > 100 µM (inactive) | > 100 µM (inactive) | > 100 µM (inactive) | > 100 µM (inactive) | – | > 100 µM (inactive) | > 100 µM (inactive) | > 100 µM (inactive) | > 100 µM (inactive) | > 100 µM (inactive) | – | > 100 µM (inactive) | > 100 µM (inactive) | > 100 µM (inactive)
O=C(N/N=C/c1ccc(Br)cc1)N/N=C/c1ccc(Br)cc1 | 10.4 µM (inactive) | 3.81 µM (inactive) | 17.6 µM (inactive) | 5.08 µM (inactive) | 10.2 µM (inactive) | 10.3 µM (inactive) | 3.52 µM (inactive) | 3.05 µM (inactive) | 3.98 µM (inactive) | – | – | 75.5 µM (inactive) | 13.2 µM (inactive) | 2.44 µM (inactive) | 16 µM (inactive) | 3.24 µM (inactive) | – | 4.33 µM (inactive) | 17.3 µM (inactive) | –
C/C(=N\Nc1nc2ccccc2s1)c1ccncn1 | 0.603 µM (active) | 0.366 µM (active) | 0.719 µM (active) | 0.286 µM (active) | 9.44 µM (inactive) | 0.245 µM (active) | 0.379 µM (active) | 0.705 µM (active) | – | 0.12 µM (active) | > 100 µM (inactive) | 8.09 µM (inactive) | – | – | 2.22 µM (inactive) | 0.117 µM (active) | 1.39 µM (inactive) | 0.641 µM (active) | 4.88 µM (inactive) | 0.817 µM (active)
COC(=O)C(/C(=N/N)C(=O)Nc1cc(Cl)c(Cl)cc1Cl)c1nc2ccc(Cl)cc2nc1O (stereo unspecified) | > 100 µM (inactive) | 95.3 µM (inactive) | > 100 µM (inactive) | > 100 µM (inactive) | > 100 µM (inactive) | 29.1 µM (inactive) | > 100 µM (inactive) | > 100 µM (inactive) | > 100 µM (inactive) | 38.9 µM (inactive) | > 100 µM (inactive) | > 100 µM (inactive) | > 100 µM (inactive) | > 100 µM (inactive) | > 100 µM (inactive) | > 10 µM (inactive) | > 100 µM (inactive) | 87.1 µM (inactive) | – | > 100 µM (inactive)
CCC(C)c1cnc(CC(C)C)c(=O)[nH]1 (stereo unspecified) | > 100 µM (inactive) | > 100 µM (inactive) | > 100 µM (inactive) | > 100 µM (inactive) | > 100 µM (inactive) | > 100 µM (inactive) | > 100 µM (inactive) | – | > 100 µM (inactive) | – | > 100 µM (inactive) | > 100 µM (inactive) | – | > 100 µM (inactive) | > 100 µM (inactive) | 89.5 µM (inactive) | – | > 100 µM (inactive) | > 100 µM (inactive) | > 100 µM (inactive)
CCn1c(SCC(=O)NNC(=S)Nc2ccc(F)cc2)nc2ccccc2c1=O | 79.8 µM (inactive) | > 100 µM (inactive) | > 100 µM (inactive) | > 100 µM (inactive) | > 100 µM (inactive) | > 100 µM (inactive) | > 100 µM (inactive) | > 100 µM (inactive) | > 100 µM (inactive) | 48 µM (inactive) | > 100 µM (inactive) | > 100 µM (inactive) | > 100 µM (inactive) | > 100 µM (inactive) | > 100 µM (inactive) | > 100 µM (inactive) | > 100 µM (inactive) | 49.4 µM (inactive) | > 100 µM (inactive) | –
O=C1c2cc(Cl)ccc2N=C(NCCCl)C2CSCN12 (stereo unspecified) | > 100 µM (inactive) | > 100 µM (inactive) | > 100 µM (inactive) | > 100 µM (inactive) | > 100 µM (inactive) | > 100 µM (inactive) | > 100 µM (inactive) | > 100 µM (inactive) | > 100 µM (inactive) | 24.3 µM (inactive) | > 100 µM (inactive) | > 100 µM (inactive) | – | > 100 µM (inactive) | > 100 µM (inactive) | 78.7 µM (inactive) | – | 52.8 µM (inactive) | > 100 µM (inactive) | –
CC(C)(C)OC(=O)N1C(OP(=O)(Oc2ccccc2)Oc2ccccc2)=CSc2ccccc21 | 59 µM (inactive) | 31.3 µM (inactive) | 31.6 µM (inactive) | 59 µM (inactive) | 34 µM (inactive) | 31.8 µM (inactive) | 56.6 µM (inactive) | 27.7 µM (inactive) | 47.2 µM (inactive) | 27.1 µM (inactive) | – | 19.1 µM (inactive) | 20.1 µM (inactive) | 35 µM (inactive) | 67.8 µM (inactive) | – | 72.8 µM (inactive) | 31.8 µM (inactive) | 39.4 µM (inactive) | 27.9 µM (inactive)
Cc1nc2cccc([N+](=O)[O-])c2n1CCCN(C)C | > 100 µM (inactive) | > 100 µM (inactive) | > 100 µM (inactive) | > 100 µM (inactive) | > 100 µM (inactive) | > 100 µM (inactive) | > 100 µM (inactive) | > 100 µM (inactive) | > 100 µM (inactive) | > 100 µM (inactive) | > 100 µM (inactive) | > 100 µM (inactive) | > 100 µM (inactive) | > 100 µM (inactive) | > 100 µM (inactive) | > 100 µM (inactive) | – | > 100 µM (inactive) | > 100 µM (inactive) | –
CCOC(=O)c1c(N)sc2c1C(C(=O)OCC)CC2 (stereo unspecified) | – | – | > 100 µM (inactive) | > 100 µM (inactive) | > 100 µM (inactive) | > 100 µM (inactive) | 40.5 µM (inactive) | 74.1 µM (inactive) | – | – | 14.3 µM (inactive) | > 100 µM (inactive) | 31.5 µM (inactive) | > 100 µM (inactive) | > 100 µM (inactive) | – | – | 40 µM (inactive) | > 100 µM (inactive) | > 100 µM (inactive)
COc1ccc2c(c1)C(=O)CC(N)C2 (stereo unspecified) | > 100 µM (inactive) | 88.5 µM (inactive) | > 100 µM (inactive) | > 100 µM (inactive) | > 100 µM (inactive) | 57 µM (inactive) | > 100 µM (inactive) | > 100 µM (inactive) | > 100 µM (inactive) | > 100 µM (inactive) | – | > 100 µM (inactive) | 62.7 µM (inactive) | > 100 µM (inactive) | > 100 µM (inactive) | 64.9 µM (inactive) | – | 55.7 µM (inactive) | 47.6 µM (inactive) | > 100 µM (inactive)
C/C=C/C(C#N)(/C=C/c1ccccc1)OP1(=O)OC(c2ccccc2)C(C)N1C (stereo unspecified) | 19.6 µM (inactive) | 19.5 µM (inactive) | 19.1 µM (inactive) | 17.9 µM (inactive) | 20.3 µM (inactive) | 20.6 µM (inactive) | 19.2 µM (inactive) | 18.9 µM (inactive) | 18.2 µM (inactive) | 20.7 µM (inactive) | 20.1 µM (inactive) | 18.6 µM (inactive) | 12.6 µM (inactive) | 19.9 µM (inactive) | 20 µM (inactive) | 11 µM (inactive) | 17.8 µM (inactive) | – | 14 µM (inactive) | 14.6 µM (inactive)
